Experiments:
CETP [1] = target: T1, CETP (Homo sapiens, UniProt P11597); assay: CETP fluorescence test; type: biochemical; conditions: CETP from human plasma, 37° C., 4 hours; read-out: IC50 (nM) Fluor. test
T1 construct: CETP is obtained in partially purified form from human plasma; from tissue; host or cells: human plasma
T1 sequence (P11597 18-493): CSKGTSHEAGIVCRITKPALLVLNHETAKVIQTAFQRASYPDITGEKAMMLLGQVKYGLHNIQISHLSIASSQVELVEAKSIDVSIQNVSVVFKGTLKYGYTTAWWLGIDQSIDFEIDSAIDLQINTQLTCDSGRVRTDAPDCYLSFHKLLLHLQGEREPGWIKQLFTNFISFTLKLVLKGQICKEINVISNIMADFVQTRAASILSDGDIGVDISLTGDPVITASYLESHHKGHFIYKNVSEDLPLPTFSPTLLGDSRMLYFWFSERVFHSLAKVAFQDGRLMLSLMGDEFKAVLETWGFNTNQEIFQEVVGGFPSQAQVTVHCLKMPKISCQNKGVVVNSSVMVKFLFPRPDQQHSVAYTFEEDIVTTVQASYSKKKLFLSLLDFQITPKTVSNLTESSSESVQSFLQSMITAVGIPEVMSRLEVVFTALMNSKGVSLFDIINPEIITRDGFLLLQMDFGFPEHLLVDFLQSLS
Description: (§1) CETP is obtained in partially purified form from human plasma by differential centrifugation and column chromatography and used for the test. To this end, human plasma is adjusted to a density of 1.21 g per ml using NaBr and centrifuged at 4° C. at 50000 rpm for 18 h. The bottom fraction (d>1.21 g/ml) is applied to a Sephadex® Phenyl-Sepharose 4B (Pharmacia) column, washed with 0.15 M NaCl/0.001 M tris HCl pH 7.4 and then eluted with dist. water. Die CETP-active fractions are pooled, dialysed against 50 mM Na acetate pH 4.5 and applied to a CM-Sepharose® (Pharmacia) column. The mixture is then eluted using a linear gradient (0-1 M NaCl). The pooled CETP fractions are dialysed against 10 mM TrisHCl pH 7.4 and then further purified by chromatography on a Mono Q® column (Pharmacia).
Measurement of the CETP-catalysed transfer of a fluorescent cholesterol ester between liposomes—modified according to the procedure of Bisgaier et al., J. Lipid Res. 34, 1625 (1993).
For the production of the donor liposomes, 1 mg of cholesteryl 4,4-difluoro-5,7-dimethyl-4-bora-3a,4a-diaza-s-indacene-3-dodecanoate (cholesteryl BODIPY® FL C12, Molecular Probes) is dissolved in 600 μl of dioxane with 5.35 mg of triolein and 6.67 mg of phosphatidylcholine with gentle warming in an ultrasonic bath and this solution is added very slowly with ultrasonication to 63 ml of 50 mM tris/HCl, 150 mM NaCl, 2 mM EDTA buffer pH 7.3 at RT.
The suspension is then ultrasonicated under an N2 atmosphere for 30 minutes in the Braukson ultrasonic bath at about 50 watts, the temperature being kept at about 20° C.
The acceptor liposomes are obtained analogously from 86 mg of cholesteryl oleate, 20 mg of triolein and 100 mg of phosphatidylcholine dissolved in 1.2 ml of dioxane and 114 ml of above buffer by ultrasonication at 50 watts (20° C.) for 30 minutes.
For testing, a test mix consisting of 1 part of above buffer, 1 part of donor liposomes and 2 parts of acceptor liposomes is used.
80 μl of test mix are treated with 1-3 μg of enriched CETP fraction, obtained from human plasma by means of hydrophobic chromatography, and 2 μl of the substance to be investigated in DMSO and incubated at 37° C. for 4 hours.
The change in the fluorescence at 485/535 nm is a measure of the CE transfer; the inhibition of the transfer in comparison to the control batch without substance is determined.

transgenic hCETP mice = assay: In vivo activity in transgenic hCETP mice (HDL); conditions: stomach tube
Description: In experiments for the determination of the oral action on lipoproteins and triglycerides, test substance is administered to transgenic mice using a stomach tube (Dinchuck, Hart, Gonzalez, Karmann, Schmidt, Wirak; BBA (1995), 1295, 301). Before the start of the experiment, blood is taken from the mice retroorbitally in order to determine cholesterol and triglycerides in the serum. The serum is obtained as described above for hamsters by incubation at 4° C. overnight and subsequent centrifugation at 6000×g. […] The change in the parameters measured is expressed as the percentage change compared with the starting value.

Syrian golden hamsters = assay: In vivo activity in Syrian golden hamsters (HDL cholesterol); conditions: perorally
Description: In experiments for the determination of the oral action on lipoproteins and triglycerides, test substance dissolved in DMSO and 0.5% suspended in Tylose are administered perorally by means of a stomach tube to Syrian golden hamsters bred in-house. For the determination of the CETP activity, before the start of the experiment blood is taken by retro-orbital puncture (about 250 μl). The test substances are then administered perorally by means of a stomach tube. The control animals receive identical volumes of solvent without test substance. The feed is then withdrawn from the animals and blood is taken at various times—up to 24 hours after substance administration—by puncture of the retroorbital venous plexus.
Clotting is terminated by incubation at 4° C. overnight, then centrifugation is carried out for 10 minutes at 6000×g. The content of cholesterol and triglycerides in the serum thus obtained is determined with the aid of modified commercially obtainable enzymatic tests (Ecoline 25 Cholesterol 1.14830.0001 Merck Diagnostica, Ecoline 25 Triglycerides 1.14856.0001 Merck Diagnostica). Serum is suitably diluted using physiological saline solution.
10 μl of serum dilution are treated with 200 μl of Ecoline 25 reagent in 96-hole plates and incubated for 10 minutes at room temperature. The optical density is then determined at a wavelength of 490 nm using an automatic plate reader. The triglyceride or cholesterol concentration contained in the samples is determined with the aid of a standard curve measured in parallel.
The determination of the content of HDL cholesterol is carried out after precipitation of the ApoB-containing lipoproteins (Sigma 352-4 HDL cholesterol reagent) according to the manufacturer's instructions.

CETP [2] = target: T1, CETP; assay: CETP-SPA test; type: biochemical; conditions: 3H-cholesterol ester transfer from HDL to biotin-LDL, 37° C., 18 h
Description: as §1
50 ml of fresh human EDTA plasma are adjusted to a density of 1.12 using NaBr and centrifuged at 4° C. in a Ty 65 rotor at 50000 rpm for 18 h. The upper phase is used for the obtainment of cold LDL. The lower phase is dialysed against 3×41 of PDB buffer (10 mM tris/HCl pH 7.4, […], 1 mM EDTA, 0.02% NaN3). Per 10 ml of retentate volume, 20 μl of 3H-cholesterol (Dupont NET-725; 1 μC/μl dissolved in ethanol!) is then added and the mixture is incubated at 37° C. under N2 for 72 h.
The batch is then adjusted to the density 1.21 using NaBr and centrifuged at 20° C. in a Ty 65 rotor at 50000 rpm for 18 h. The upper phase is recovered and the lipoprotein fractions are purified by gradient centrifugation. To this end, the isolated, labelled lipoprotein fraction is adjusted to a density of 1.26 using NaBr. 4 ml each of this solution are covered in centrifuged tubes (SW 40 rotor) with a layer of 4 ml of a solution of density 1.21 and 4.5 ml of a solution of 1.063 (density solutions of PDB buffer and NaBr) and then centrifuged for 24 h at 38000 rpm and 20° C. in the SW 40 rotor. The intermediate layer lying between the density 1.063 and 1.21, containing the labelled HDL, is dialysed against 3×100 volumes of PDB buffer at 4° C.
The retentate contains radiolabelled ^3H-CE-HDL, which, adjusted to about 5×10^6 cmp per ml, is used for the test.
For testing of the CETP activity, the transfer of ^3H-cholesterol ester from human HD lipoproteins to biotinylated LD lipoproteins is measured.
The reaction is ended by addition of streptavidin-SPA®beads (Amersham) and the transferred radioactivity is determined directly in a liquid scintillation counter.
In the test batch, 10 μl of HDL-^3H-cholesterol ester (˜50000 cpm) are incubated at 37° C. for 18 h with 10 μl of biotin-LDL (Amersham) in 50 mM Hepes/0.15 M NaCl/0.1% bovine serum albumin/0.05% NaN3 pH 7.4 containing 10 μl of CETP (1 mg/ml) and 3 μl of solution of the substance to be tested (dissolved in 10% DMSO/1% RSA). 200 μl of the SPA-streptavidin bead solution (TRKQ 7005) are then added, incubated further with shaking for 1 h and then measured in a scintillation counter.
Corresponding incubations with 10 μl of buffer, 10 μl of CETP at 4° C. and 10 μl of CETP at 37° C. serve as controls.
The activity transferred in the control batches with CETP at 37° C. is rated as 100% transfer. The substance concentration at which this transfer is reduced to half is specified as the IC50 value.

SMILES | IC50 (CETP [1]) [nM] | % HDL increase after 4 d (Dose: 4 × 10 mg/kg) (transgenic hCETP mice) [%] | % HDL increase after 24 h (Dose: 2 × 10 mg/kg) (Syrian golden hamsters) [%] | IC50 (CETP [2]) [nM]
CC(C)c1nc2c(c(C3CCCC3)c1[C@@H](O)c1ccc(C(F)(F)F)cc1)[C@@H](O)CC1(CCC1)C2 [Example 69, (5S)-2-Isopropyl-4-cyclopentyl-3-[(S)-hydroxy-(4-trifluoromethylphenyl)-methyl]-7-spirocyclobutyl-5,6,7,8-tetrahydroquinolin-5-ol] | 70 | 28 |  | 
O[C@@H](c1ccc(C(F)(F)F)cc1)c1c(C2CCCC2)nc2c(c1C1CCCC1)[C@@H](O)CC1(CCC1)C2 [Example 71, (5S)-2,4-Dicyclopentyl-3-[(S)-hydroxy-(4-trifluoromethylphenyl)-methyl]-7-spirocyclobutyl-5,6,7,8-tetrahydroquinolin-5-ol] | 40 |  | 14 | 
O[C@@H](c1ccc(C(F)(F)F)cc1)c1c(C2CCCC2)nc2c(c1-c1ccc(F)cc1)[C@@H](O)CC1(CCC1)C2 [Example 80, (5S)-2-Cyclopentyl-4-(4-fluorophenyl)-3-[(S)-hydroxy-(4-trifluoromethylphenyl)-methyl]-7-spirocyclobutyl-5,6,7,8-tetrahydroquinolin-5-ol] | 9 |  | 17 | 5
